Here are results for three molecules from patent US5373020A, “Substituted 5-(2-((2-aryl-2-hydroxyethyl)amino)propyl)-1,3-benzodioxoles” (American Cyanamid Company, priority 1993, dated 1994).

pEC50: −log10 of the molar value.

Test [1] has as its system ob/ob mice. The test can be described thus: Plasma glucose, compound in chow, obese mice. Format: in vivo, mouse (C57 B1/6J ob/ob). The protocol:
(§1) The compounds of this invention were tested for hypoglycemic and anti-obesity activity according to the following procedure.
(§2) Obese mice (C57 B1/6J (ob/ob)), and/or diabetic mice (C57 B1/KsJ (db/db)) were obtained from Jackson Laboratories, Bar Harbor, Maine. Obese rats (fa/fa) were obtained from Charles River Laboratories, Wilmington, Mass. Obese mice were 8 weeks of age and diabetic mice were 9 weeks of age at the start of the test. Obese rats were 12-14 weeks of age at the start.
(§3) The test compounds were dissolved in methanol, mixed with powdered Purina rodent chow on a weight of compound to weight of chow basis and thoroughly dried.
(§4) Groups of 6 control mice or rats received vehicle (methanol) treated chow.
[…] Thus, a 40 g mouse, fed the test compound at a concentration of 0.02 percent of the diet, would receive a dose of 20 mg/kg/day if it ate 4 g of chow per day.
(§5) The mice or rats were weighed before the first treatment and once at the end of each indicated treatment period.
(§6) Blood samples were collected before the first treatment and once at the end of each indicated treatment period by retro-orbital puncture using heparinized capillary tubes.
(§7) Plasma was separated by centrifugation in a Beckman microfuge for 5 minutes. Plasma glucose concentrations were determined with the Beckman glucose analyzer which uses a glucose oxidase method.

For another test, the system named is db/db mice. The test can be described thus: Plasma glucose, compound in chow, diabetic mice. The format is in vivo, mouse (C57 B1/KsJ db/db). The protocol:
as §1, §2, §3, §4
(§8) Groups of 6 test mice were fed ad libitum for up to seven weeks and food consumption was measured daily by weighing the food bins before and after the addition of fresh chow. Thus, a 40 g mouse, fed the test compound at a concentration of 0.02 percent of the diet, would receive a dose of 20 mg/kg/day if it ate 4 g of chow per day.
as §5, §6, §7

For the next test, the target named is T1, β2-receptors (Mus musculus, UniProt P18762).
T1 construct: Soleus muscle from mice were dissected; from tissue; host or cells: mouse soleus muscle
T1 sequence (P18762 whole entry): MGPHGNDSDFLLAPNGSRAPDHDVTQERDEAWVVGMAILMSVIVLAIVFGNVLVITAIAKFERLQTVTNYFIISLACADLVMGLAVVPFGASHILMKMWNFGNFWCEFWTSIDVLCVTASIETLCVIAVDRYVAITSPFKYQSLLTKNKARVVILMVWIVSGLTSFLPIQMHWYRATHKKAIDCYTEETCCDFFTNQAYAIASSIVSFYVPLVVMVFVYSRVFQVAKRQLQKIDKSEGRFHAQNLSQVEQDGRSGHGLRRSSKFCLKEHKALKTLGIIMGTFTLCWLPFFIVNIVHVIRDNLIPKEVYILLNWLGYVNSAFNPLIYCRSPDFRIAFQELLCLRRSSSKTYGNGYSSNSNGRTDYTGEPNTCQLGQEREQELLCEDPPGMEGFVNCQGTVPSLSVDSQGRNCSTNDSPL
The test can be described thus: Inhibition of insulin-mediated incorporation of 14C-glucose into glycogen in isolated soleus muscle (β2-effect). The settings on record: for β2 activity: CL1 vs BRL1 (FIG. 1), CL2 vs BRL2 (FIG. 2). The protocol: (§9) β-Adrenergic receptors can be divided into β1, β2 and β3 -subtypes. Activation of β1 -receptors invokes increases in heart rate while activation of β2 -receptors stimulates glycogen breakdown in muscle and thereby prevents glycogen synthesis. Activation of β3 -receptors stimulates lipolysis (the breakdown of adipose tissue triglycerides to glycerol and free fatty acids), and thereby promotes the loss of fat mass.
The β2 -effect of the compounds was determined by their ability to inhibit the insulin-mediated incorporation of ^14 C-glucose into glycogen in isolated muscle. Soleus muscle from mice were dissected, tied at each end, and placed in a clamp to maintain tension. The clamped muscle was added to a vial that contained 2 ml of KHB with 1.5% bovine serum albumin, 0.3 mU/ml insulin, 5 mM (U^-14 C) glucose, and the appropriate additions of compound or vehicle. The vial was gassed with 95% O2 -5% CO2, capped, and the tissue incubated for one hour in a rotating water bath at 37° C. The muscle was then removed, rinsed in ice-cold saline, blotted and weighed. It was then added to 1 ml of 30% KOH containing 5 mg/ml of oyster glycogen, boiled for 10 minutes, and 0.4 ml of 2% Na2 SO4 and 3.2 ml of 100% ethanol added. After standing overnight at 4° C., the glycogen was pelleted by centrifugation, washed once with 66% ethanol, and repelleted. The pellet was dissolved in 1 ml of water and the amount of radioactivity present determined by liquid scintillation.

The target of another test is T2, β3-receptors (Rattus norvegicus, UniProt P26255).
T2 construct: Rat epididymal fat pads were excised and placed in 0.9% saline; from tissue; host or cells: collagenase-isolated adipocytes from rat epididymal fat pads
T2 sequence (P26255 whole entry): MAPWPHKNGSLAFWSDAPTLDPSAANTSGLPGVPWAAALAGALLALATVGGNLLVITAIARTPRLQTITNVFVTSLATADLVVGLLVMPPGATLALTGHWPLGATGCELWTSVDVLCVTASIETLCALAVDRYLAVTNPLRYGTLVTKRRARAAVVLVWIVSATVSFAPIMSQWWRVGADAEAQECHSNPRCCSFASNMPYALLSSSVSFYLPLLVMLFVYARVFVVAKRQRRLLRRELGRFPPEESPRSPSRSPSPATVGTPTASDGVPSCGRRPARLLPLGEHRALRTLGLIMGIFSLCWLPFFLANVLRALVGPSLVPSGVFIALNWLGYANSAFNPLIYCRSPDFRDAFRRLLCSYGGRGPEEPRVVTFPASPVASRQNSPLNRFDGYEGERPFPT
Kind of test: Stimulation of adipocyte lipolysis (β3-effect). Format: cell-based. The settings on record: for β3 potency in comparison: CL1 vs BRL1 (FIG. 1), CL2 vs BRL2 (FIG. 2). How it is done:
as §9
The β3 -effect of the compounds was determined by their ability to stimulate adipocyte lipolysis. Rat epididymal fat pads were excised and placed in 0.9% saline. Four grams of tissue were transferred to a flask with 20 ml of aerated Krebs-Henseleit bicarbonate (KHB) buffer containing 3% fatty acid-free bovine serum albumin to which 75 mg of crude bacterial collagenase (Worthington) had been added. The tissue was incubated for about 45 minutes at 37° C. with gentle shaking. The cells were then washed three times with two volumes of KHB buffer, filtered through two layers of gauze, and brought to a final volume of 80 ml with KHB buffer. One ml aliquots of the cell suspension were added to plastic test tubes containing the appropriate additions of vehicle or compound. The cells were gassed for 1 minute with 95% O2 -5% CO2, capped, and incubated at 37° C. with continuous shaking for a total of 30 minutes. The reaction was stopped by adding 0.1 ml of 30% perchloric acid and 0.1 ml of chloroform. After centrifugation, 0.5 ml of supernatant was transferred to another test tube and neutralized with 0.04 ml of 3M K2 CO3 -0.5M triethanolamine. The amount-of glycerol generated from the hydrolysis of endogenous triglycerides was determined in a coupled-enzyme spectrophotometric assay. […] The test tubes were incubated for 40 minutes at 37° C. with constant shaking. […] This value was corrected for the amount of NADH generated in the absence of glycerol by incubating another aliquot of the neutralized extract with the same assay mixture but without glycerokinase.

A further test addresses T3, β1-receptors (Cavia porcellus, UniProt H0W3H1).
T3 construct: from tissue; host or cells: guinea pig right atria
The test can be described thus: Effect on heart rate of isolated right atria (β1-effect). The arrangement: species or system guinea pig. The settings on record: for β1 activity: CL1 vs BRL1 (FIG. 1), CL2 vs BRL2 (FIG. 2). The protocol: as §9
Selectivity of a compound was determined using the following procedures. The effect on heart rate (β1 -effect) was determined using isolated right atria. […] The right atria were dissected and clamped at one end to a tissue holder and electrode assembly (MRA Corp.) and tied at the other end to a force-displacement transducer (Gould-Statham, Burco). The tissues were maintained at 32° C. in a 50 ml capacity glass chamber (MRA Corp.) preloaded with 0.5 g tension. Heart rate was monitored by a Grass polygragh. […] The increase in heart rate was calculated and considered to be the maximum response for that tissue. The tissues were then washed and allowed to equilibrate for 90 minutes. Cumulative concentration-response curves were then determined for each compound or vehicle. All responses were measured 5 minutes post-exposure.

Test [2] relates to ob/ob mice. The test can be described thus: Change in weight and food consumption, compound in chow, obese mice. Format: in vivo, mouse (C57 B1/6J ob/ob). How it is done:
as §1, §2, §3, §4, §8, §5

[3] abbreviates: dose 0.0005 % wt of chow, week 0 (before treatment).
The mark [4] stands for this setting: dose 0.0005 % wt of chow, week 1.
Setting [5] is: dose 0.005 % wt of chow, week 0 (before treatment).
[6] abbreviates: dose 0.005 % wt of chow, week 1.
Where [7] appears, read: dose 0.005 % wt of chow, week 2.
[8] abbreviates: dose 0.002 % wt of chow, week 0 (before treatment).
Where [9] appears, read: dose 0.002 % wt of chow, week 1.
Where [10] appears, read: dose 0.002 % wt of chow, week 4.
The mark [11] stands for this setting: dose 0.005 % wt of chow, week 4.

T3 sequence (H0W3H1 1-470): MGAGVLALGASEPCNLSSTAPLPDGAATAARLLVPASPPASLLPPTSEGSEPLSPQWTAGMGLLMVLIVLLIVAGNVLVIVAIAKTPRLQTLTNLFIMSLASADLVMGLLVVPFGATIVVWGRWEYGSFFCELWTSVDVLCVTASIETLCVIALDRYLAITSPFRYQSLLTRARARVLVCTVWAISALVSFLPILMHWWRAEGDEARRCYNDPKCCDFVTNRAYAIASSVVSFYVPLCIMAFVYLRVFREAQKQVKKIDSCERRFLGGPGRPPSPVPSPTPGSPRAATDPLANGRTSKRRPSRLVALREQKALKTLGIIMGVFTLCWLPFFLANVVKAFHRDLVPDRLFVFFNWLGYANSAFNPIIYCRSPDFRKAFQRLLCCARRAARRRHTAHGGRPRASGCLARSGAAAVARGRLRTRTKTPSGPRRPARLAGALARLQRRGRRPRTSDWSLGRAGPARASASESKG

What is called pEC50 is the negative decadic logarithm of the EC50, by convention in mol/L. Take `COC(=O)COc1ccc(C[C@@H](C)NC[C@H](O)c2ccc(Cl)cc2)cc1` (relative stereo) [BRL1, (R*,R*)-(±)-(4-(2-((2-(4-chlorophenyl)-2-hydroxyethyl)amino)propyl)phenoxy)-acetic acid, methyl ester, reference compound]: the “Plasma Glucose Levels” value amounted to 231 mg/100 ml with ob/ob mice [1] (dose 0.0001 % wt of chow, week 0 (before treatment)); 143 mg/100 ml with ob/ob mice [1] (dose 0.0001 % wt of chow, week 1); 119 mg/100 ml in the test with ob/ob mice [1] (dose 0.0001 % wt of chow, week 2); 232 mg/100 ml with ob/ob mice [1] (setting [3]); 140 mg/100 ml in the test with ob/ob mice [1] (setting [4]); 126 mg/100 ml in the test with ob/ob mice [1] (dose 0.0005 % wt of chow, week 2). Further, the “Plasma Glucose Levels” value stood at 231 mg/100 ml in the test with ob/ob mice [1] (setting [5]); 137 mg/100 ml in the test on ob/ob mice [1] (setting [6]); 138 mg/100 ml with ob/ob mice [1] (setting [7]); 440 mg/100 ml with db/db mice (setting [5]); 138 mg/100 ml with db/db mice (setting [6]); 132 mg/100 ml in the test on db/db mice (setting [7]). The pEC50 on β2-receptors is 6.92; on β3-receptors it was 7.89; at β1-receptors it was 6.70. Also, the “β2 activity” value on β2-receptors was “more of the undesirable β1 and β2 activities than does CL1”. Moreover, the “β3 potency in comparison” value at β3-receptors is “slightly greater β3 potency”. In addition, the “Selectivity for Lipolysis over Atria ((EC50 - β1)/(EC50 - β3))” value on β3-receptors (ratio EC50 β1 / EC50 β3) is listed as 15. On β3-receptors (ratio EC50 β2 / EC50 β3), the “Selectivity for Lipolysis over Gly. Syn. ((EC50 - β2)/(EC50 - β3))” value was 9. Besides, the “β1 activity” value on β1-receptors was “more of the undesirable β1 and β2 activities than does CL1”.
As for `C[C@H](Cc1ccc(OCC(=O)[O-])cc1)NC[C@H](O)c1cccc(Cl)c1.[Na+]` (relative stereo) [BRL2, (R*,R*)(+/-)4-(2-((2-(3-chlorophenyl)-2-hydroxyethyl)amino)propyl)phenoxy-acetic acid, monosodium salt], at β2-receptors, the pEC50 is 6.10 and the “β2 activity” value was “full agonist with measurable activity at 1×10^-7M”. Besides, on β1-receptors, the negative-log EC50 (pEC50) was 5.25 and the “β1 activity” value is on record as “significant β1 activity”.
On to `C[C@H](Cc1ccc2c(c1)OC(C(=O)[O-])(C(=O)[O-])O2)NC[C@H](O)c1cccc(Cl)c1.[Na+].[Na+]` (stereo in doubt) [CL2, (R*,R*)-(±)-5(2-((2-(3-chlorophenyl)-2-hydroxyethyl)amino)propyl)-1,3-benzodioxole-2,2-dicarboxylic acid, disodium salt], for which the “Plasma Glucose Levels” value was 218 mg/100 ml with ob/ob mice [1] (setting [3]); 193 mg/100 ml in the test with ob/ob mice [1] (setting [4]); 240 mg/100 ml with ob/ob mice [1] (dose 0.0005 % wt of chow, week 4); 220 mg/100 ml in the test on ob/ob mice [1] (setting [8]); 162 mg/100 ml with ob/ob mice [1] (setting [9]); 197 mg/100 ml in the test with ob/ob mice [1] (setting [10]). Besides, the “Plasma Glucose Levels” value with ob/ob mice [1] (setting [5]) is 220 mg/100 ml; with ob/ob mice [1] (setting [6]) it was 145 mg/100 ml; in the test on ob/ob mice [1] (setting [11]) it was 165 mg/100 ml; in the test on db/db mice (setting [8]) it was 453 mg/100 ml; in the test on db/db mice (setting [9]) it was 236 mg/100 ml; with db/db mice (dose 0.002 % wt of chow, week 5) it was 190 mg/100 ml. Also, the “Plasma Glucose Levels” value in the test with db/db mice (dose 0.002 % wt of chow, week 7) was determined as 25 mg/100 ml; in the test on db/db mice (setting [5]), 452 mg/100 ml; in the test with db/db mice (setting [6]), 155 mg/100 ml; with db/db mice (dose 0.005 % wt of chow, week 5), 145 mg/100 ml; in the test with db/db mice (dose 0.005 % wt of chow, week 7) it was 16 mg/100 ml. In addition, the pEC50 on β2-receptors is less than 4.00; on β1-receptors, less than 3.00. The “β2 activity” value at β2-receptors was “only minimal β2 activity at 1×10^-4 M”. For the same molecule, the “Average Daily Food Consumption” value with ob/ob mice [2] (dose 0.002 % wt of chow) is recorded as 5.2 g/animal; in the test on ob/ob mice [2] (dose 0.005 % wt of chow), 5.9 g/animal. The Change in weight in the test with ob/ob mice [2] (setting [9]) amounted to 1.6 grams; with ob/ob mice [2] (dose 0.002 % wt of chow, week 2), 4.1 grams; in the test on ob/ob mice [2] (dose 0.002 % wt of chow, week 3), 4.7 grams; in the test with ob/ob mice [2] (setting [10]), 7.3 grams; in the test on ob/ob mice [2] (setting [6]), 0.2 grams; in the test with ob/ob mice [2] (setting [7]) it was 1.6 grams. The Change in weight with ob/ob mice [2] (dose 0.005 % wt of chow, week 3) was 2.4 grams; in the test on ob/ob mice [2] (setting [11]) it was 4.7 grams. In addition, the “β3 potency in comparison” value on β3-receptors is recorded as “slightly greater β3 potency than does BRL2”. In addition, the “β1 activity” value at β1-receptors was “no measurable β1 activity”.
